The conditions of data set [1]: cited from earlier work.
The conditions of data set [2]: rat, in vivo, po.
Experimental: (§1) The sodium ampicillin and the talampicillin hydrochloride have been administered in aqueous solution; the other talampicillin salts have been administered in aqueous suspension.
(§2) At 0.5, 1,2,4 and 6 hours after the administration the animals were sacrified and their blood was taken from the portal vein.
The conditions of data set [3]: white powder.
A short description of data set [4]: in vivo. Particulars: rat, po, 100 mg/kg.
Experimental: as §1, §2

Like-named read-outs stand apart in the source and are kept apart here.

`CC1(C)S[C@@H]2[C@H](NC(=O)[C@H](N)c3ccccc3)C(=O)N2[C@H]1C(=O)OC1OC(=O)c2ccccc21` (single isomer, unassigned) [talampicillin, phtahlidyl ester of the 6-[D(-)-α-aminophenylacetamido]penicillanic acid]: in data set [1] (in vivo, po), the “blood levels of the parent ampicillin (in words)” value is reported as “very high blood levels of the parent ampicillin”. The “absorption (in words)” value in data set [1] (oral route, animals and man) is “well absorbed when administered by oral route in animals and in man”.
In turn, `CC1(C)S[C@@H]2[C@H](NC(=O)[C@H](N)c3ccccc3)C(=O)N2[C@H]1C(=O)OC1OC(=O)c2ccccc21` (single isomer, unassigned) [talampicillin 2-methoxyphenoxyacetate, 2-methoxyphenoxyacetate of the phthalidyl ester of the 6-[D(-)-α-aminophenylacetamido]penicillanic acid] showed an SBC in data set [2] of 30. Also, the “mcg/ml ampicillin, average ± standard error” value in data set [2] (30 min) amounted to 23.4 ± 2.4 µg/mL; in data set [2] (60 min), 10.2 ± 0.9 µg/mL; in data set [2] (120 min) it was 3.8 ± 1.1 µg/mL; in data set [2] (240 min), 1.7 ± 0.4 µg/mL; in data set [2] (360 min), 1.6 ± 1 µg/mL. Moreover, the storage entry in data set [3] is listed as “do not show any problem of storage”.
In data set [4], `CC1(C)S[C@@H]2[C@H](NC(=O)[C@H](N)c3ccccc3)C(=O)N2[C@H]1C(=O)O` [sodium ampicillin, 6-[D(-)-α-aminophenylacetamido]penicillanic acid] came in with an AUC at 6 h of 10700 ng·h/mL, a concentration at 0.5 h of 6400 ng/mL, a concentration at 1 h of 4600 ng/mL and a concentration at 2 h of 1400 ng/mL. Besides, in data set [4], the concentration at 4 h turned out to be 800 ng/mL and the concentration at 6 h was 200 ng/mL.
Consider `CC1(C)S[C@@H]2[C@H](NC(=O)[C@H](N)c3ccccc3)C(=O)N2[C@H]1C(=O)OC1OC(=O)c2ccccc21` (some centres unmarked) [talampicillin napsylate, naphthalene 2-sulphonate of talampicillin], for which the “mcg/ml ampicillin, average ± standard error” value in data set [2] (30 min) is 14.8 ± 3.4 µg/mL; in data set [2] (60 min), 6.1 ± 1.8 µg/mL; in data set [2] (120 min), 2.7 ± 0.2 µg/mL; in data set [2] (240 min), 1.9 ± 0.6 µg/mL; in data set [2] (360 min), 1.1 ± 0.1 µg/mL.

As a reminder, the AUC is concentration integrated over time. Low values mean less exposure, high ones more exposure.

These data come from patent US4293560A, “Talampicillin 2-methoxyphenoxyacetate and pharmaceutical compositions containing it” (priority 1980, dated 1981).
